Test [1] has as its target T1, TBX2 (Homo sapiens, UniProt Q13207).
T1 sequence (Q13207 94-287): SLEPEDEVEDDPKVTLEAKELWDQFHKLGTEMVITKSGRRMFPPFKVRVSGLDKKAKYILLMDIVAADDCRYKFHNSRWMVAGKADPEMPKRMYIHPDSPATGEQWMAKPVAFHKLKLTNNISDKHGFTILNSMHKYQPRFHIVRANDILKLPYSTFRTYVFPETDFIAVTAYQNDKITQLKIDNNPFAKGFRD
The test can be described thus: microscale thermophoresis; also recovered by reverse affinity chromatography with UPLC-MS. Format: binding. Background: In MST a laser heats a spot of the sample, and binding alters the fluorescence response.

Test [2] concerns the target T1, TBX2. The test can be described thus: microscale thermophoresis. It is filed as binding.

`CO[C@@H]1[C@H](O)C[C@@H](O[C@@H]2C[C@H](Oc3cc4cc5c(c(O)c4c(O)c3C)C(=O)C(O[C@H]3C[C@@H](O[C@H]4C[C@@H](O[C@H]6C[C@](C)(O)[C@@H](OC(=O)C(C)C)[C@H](C)O6)[C@H](O)[C@@H](C)O4)[C@H](O)[C@@H](C)O3)C([C@H](OC)C(=O)[C@@H](O)[C@@H](C)O)C5)O[C@H](C)[C@@H]2OC(C)=O)O[C@@H]1C` (some centres unmarked) [CA5, chromomycin A5]: in test [1], binding was characterised by a dissociation constant (Kd) of 31.3 ± 23.3 µM.

On to `CO[C@@H]1[C@H](O)C[C@@H](O[C@@H]2C[C@H](Oc3cc4cc5c(c(O)c4c(O)c3C)C(=O)C(O[C@H]3C[C@@H](O[C@H]4C[C@@H](O[C@H]6C[C@](C)(O)[C@@H](OC(C)=O)[C@H](C)O6)[C@H](O)[C@@H](C)O4)[C@H](O)[C@@H](C)O3)C([C@H](OC)C(=O)[C@@H](O)[C@@H](C)O)C5)O[C@H](C)[C@@H]2OC(C)=O)O[C@@H]1C` (some centres unmarked) [CA6, chromomycin A6], for which binding in test [2] was characterised by a dissociation constant (Kd) of 24.4 ± 13.6 µM.
